Results from publication PMC7226045, “Ensartinib (X-396) Effectively Modulates Pharmacokinetic Resistance Mediated by ABCB1 and ABCG2 Drug Efflux Transporters and CYP3A4 Biotransformation Enzyme” (Cancers, 2020).

Columns and labels:
[1] = target: T1, ABCG2 (Homo sapiens, UniProt Q9UNQ0); assay: hoechst 33342 accumulation assay in MDCKII-ABCG2 cells; format: cell-based; details: read-out: IC50, inhibition of ABCG2 (hoechst 33342 accumulation)
T1 construct: expressed in transfected cells; host or cells: MDCKII-ABCG2 (from Dr. Alfred Schinkel, The Netherlands Cancer Institute)
T1 sequence (Q9UNQ0 1-655): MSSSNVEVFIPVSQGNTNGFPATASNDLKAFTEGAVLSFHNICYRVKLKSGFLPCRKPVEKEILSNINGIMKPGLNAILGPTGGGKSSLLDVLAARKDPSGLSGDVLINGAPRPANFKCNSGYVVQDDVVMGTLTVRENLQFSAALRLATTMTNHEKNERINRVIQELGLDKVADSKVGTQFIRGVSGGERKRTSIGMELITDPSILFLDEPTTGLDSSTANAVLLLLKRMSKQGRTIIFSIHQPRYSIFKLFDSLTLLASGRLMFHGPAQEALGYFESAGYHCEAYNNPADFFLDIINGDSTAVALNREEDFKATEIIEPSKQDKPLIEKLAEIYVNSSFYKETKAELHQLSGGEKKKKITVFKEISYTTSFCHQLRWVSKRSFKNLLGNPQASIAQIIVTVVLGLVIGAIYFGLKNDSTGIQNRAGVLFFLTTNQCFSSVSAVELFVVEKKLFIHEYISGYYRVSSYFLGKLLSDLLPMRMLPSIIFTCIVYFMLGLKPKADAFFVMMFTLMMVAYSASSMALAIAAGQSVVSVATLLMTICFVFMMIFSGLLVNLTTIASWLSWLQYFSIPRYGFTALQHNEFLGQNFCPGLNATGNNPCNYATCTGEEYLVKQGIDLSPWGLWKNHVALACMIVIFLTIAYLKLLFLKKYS
Procedure: (§1) Cellular accumulation assay with hoechst 33342 and calcein AM was performed as described previously. Briefly, MDCKII-par, MDCKII-ABCB1, MDCKII-ABCG2, and MDCKII-ABCC1 cells were seeded at densities of 5.0 × 10^4, 5.0 × 10^4, 5.5 × 10^4, and 6.0 × 10^4 cells/well, respectively, on a transparent 96-well plate and grown to full confluence for 24 h under standard conditions. The cells were then washed twice with 1 × PBS, after which was added either a dilution of ensartinib in Opti-MEM (1, 5, 10, 25, or 50 µM) or a specific inhibitor to act as a positive control (1 µM LY335979, 1 µM Ko143, or 25 µM MK-571 for ABCB1, ABCG2, or ABCC1, respectively). Cells were pre-incubated for 10 min, then 8 µM hoechst 33342 (a model substrate for ABCB1 and ABCG2) or 2 µM calcein AM (ABCC1 substrate) diluted in Opti-MEM was quickly added to all wells other than those containing blank samples. The intracellular levels of the substrates were then determined at 1 min intervals for 30 min using a microplate reader (Infinite M200 Pro, Tecan, Männedorf, Switzerland). Fluorescence was monitored in bottom mode using excitation/emission wavelengths of 350/465 and 485/535 nm for hoechst 33342 and calcein AM, respectively.

[2] = target: T2, CYP2C9 (Homo sapiens, UniProt P11712); assay: Vivid CYP screening kit, recombinant CYP2C9; format: biochemical; details: recombinant enzyme, 15 min incubation, absolute IC50; read-out: CYP2C9 inhibition IC50
T2 construct: purchased Thermo Fisher Scientific; host or cells: insect microsomal fractions
Procedure: CYP inhibitory assay was performed as described previously. Experiments were performed with commercial Vivid CYP screening kits containing insect microsomal fractions enriched with a specific human CYP isoform, human CYP reductase, and in some cases, human cytochrome b5. The potential inhibitory activity of ensartinib toward CYP1A2, CYP2B6, CYP2C8, CYP2C9, CYP2C19, CYP2D6, CYP3A4, and CYP3A5 (i.e., all CYP isoforms that drug regulatory authorities recommend for testing of inhibition by new molecular entities) was then examined. Experiments were performed using a kinetic mode in black 96-well plates according to the manufacturer´s instructions. Briefly, 5-point serial dilutions of ensartinib or the model inhibitor recommended by the manufacturer in buffer were transferred into the wells, then a master mix consisting of a CYP isoenzyme with an NADPH regeneration system in buffer was added. After a 10 min pre-incubation, the reaction was initiated by adding a mixture of NADP^+ and the appropriate Vivid substrate, after which fluorescence was measured at 1 min intervals for 60 min using an Infinite M200 Pro microplate reader (Tecan, Männedorf, Switzerland). The enzyme concentration and incubation interval used for data evaluation (15 min) placed the systems within the linear regions of the appropriate reaction velocity curves. […]

[3] = system: MDCKII-parent cells; assay: MTT proliferation / drug combination assay, MDCKII-parent; format: cell-based, canine
Procedure: MTT proliferation assay was performed as described previously.

[4] = target: T3, ABCB1 (Homo sapiens, UniProt P08183); assay: daunorubicin accumulation assay (flow cytometry) in MDCKII-ABCB1 cells; format: cell-based; details: 2 µM daunorubicin, 1 h, read-out: IC50, inhibition of ABCB1 (daunorubicin accumulation)
T3 construct: expressed in transfected cells; host or cells: MDCKII-ABCB1 (from Dr. Alfred Schinkel, The Netherlands Cancer Institute)
Procedure: The flow-cytometric inhibitory assay with daunorubicin and mitoxantrone was performed with minor modifications as described previously. MDCKII-par, MDCKII-ABCB1, MDCKII-ABCG2, and MDCKII-ABCC1 cell lines were seeded at densities of 22.0 × 10^4, 15.0 × 10^4, 25.0 × 10^4, and 22.0 × 10^4 cells/well, respectively, on a 12-well plate and then incubated for 24 h to reach approximately 70–80% confluence. Further steps including cell washing, the preparation of drug/model inhibitor dilutions, and their addition to cells were performed as described above. After the 10 min pre-incubation period, 2 µM daunorubicin (a substrate of ABCB1/ABCC1) or 1 µM mitoxantrone (ABCG2 substrate) were promptly added to all wells other than those containing background samples, then the plate was incubated for 1 h under standard conditions. The plates were subsequently placed on ice, the cells were washed twice with ice-cold 1× PBS, and 10× trypsin without phenol red was added. After complete trypsinization, the cells were vigorously resuspended in ice-cold 1× PBS containing 2% FBS. Samples were then transferred into test-tubes and kept on ice until their fluorescence could be measured using a flow cytometer (BD FACSCanto II, Allschwil, Switzerland). The excitation/emission wavelengths for daunorubicin and mitoxantrone were 490/565 and 640/670 nm, respectively.

[5] = system: MDCKII-par cells; assay: substrate accumulation in control MDCKII-par cells; format: cell-based, canine; details: hoechst 33342, calcein AM, daunorubicin, mitoxantrone
Procedure: as §1, with “Cells were pre-incubated for 10 min, then 8 µM hoechst 33342 (a model substrate for ABCB1 and ABCG2) or 2 µM calcein AM (ABCC1 substrate) diluted in Opti-MEM was quickly added to all wells other than those containing blank samples.” left out
The flow-cytometric inhibitory assay with daunorubicin and mitoxantrone was performed with minor modifications as described previously. […] Samples were then transferred into test-tubes and kept on ice until their fluorescence could be measured using a flow cytometer (BD FACSCanto II, Allschwil, Switzerland). […]

T2 sequence (P11712 whole entry): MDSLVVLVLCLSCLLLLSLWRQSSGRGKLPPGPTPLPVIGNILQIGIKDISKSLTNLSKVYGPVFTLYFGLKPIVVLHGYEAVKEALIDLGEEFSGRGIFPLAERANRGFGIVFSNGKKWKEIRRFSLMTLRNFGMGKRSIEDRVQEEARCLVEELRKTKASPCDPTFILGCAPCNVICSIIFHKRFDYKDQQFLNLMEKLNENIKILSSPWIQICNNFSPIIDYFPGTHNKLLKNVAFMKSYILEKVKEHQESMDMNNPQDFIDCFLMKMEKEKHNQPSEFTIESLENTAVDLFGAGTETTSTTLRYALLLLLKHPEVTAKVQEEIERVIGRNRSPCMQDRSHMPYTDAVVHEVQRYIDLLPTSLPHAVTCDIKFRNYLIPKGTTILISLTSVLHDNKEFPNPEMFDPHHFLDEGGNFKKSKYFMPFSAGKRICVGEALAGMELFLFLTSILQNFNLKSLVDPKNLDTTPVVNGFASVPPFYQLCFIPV
T3 sequence (P08183 whole entry): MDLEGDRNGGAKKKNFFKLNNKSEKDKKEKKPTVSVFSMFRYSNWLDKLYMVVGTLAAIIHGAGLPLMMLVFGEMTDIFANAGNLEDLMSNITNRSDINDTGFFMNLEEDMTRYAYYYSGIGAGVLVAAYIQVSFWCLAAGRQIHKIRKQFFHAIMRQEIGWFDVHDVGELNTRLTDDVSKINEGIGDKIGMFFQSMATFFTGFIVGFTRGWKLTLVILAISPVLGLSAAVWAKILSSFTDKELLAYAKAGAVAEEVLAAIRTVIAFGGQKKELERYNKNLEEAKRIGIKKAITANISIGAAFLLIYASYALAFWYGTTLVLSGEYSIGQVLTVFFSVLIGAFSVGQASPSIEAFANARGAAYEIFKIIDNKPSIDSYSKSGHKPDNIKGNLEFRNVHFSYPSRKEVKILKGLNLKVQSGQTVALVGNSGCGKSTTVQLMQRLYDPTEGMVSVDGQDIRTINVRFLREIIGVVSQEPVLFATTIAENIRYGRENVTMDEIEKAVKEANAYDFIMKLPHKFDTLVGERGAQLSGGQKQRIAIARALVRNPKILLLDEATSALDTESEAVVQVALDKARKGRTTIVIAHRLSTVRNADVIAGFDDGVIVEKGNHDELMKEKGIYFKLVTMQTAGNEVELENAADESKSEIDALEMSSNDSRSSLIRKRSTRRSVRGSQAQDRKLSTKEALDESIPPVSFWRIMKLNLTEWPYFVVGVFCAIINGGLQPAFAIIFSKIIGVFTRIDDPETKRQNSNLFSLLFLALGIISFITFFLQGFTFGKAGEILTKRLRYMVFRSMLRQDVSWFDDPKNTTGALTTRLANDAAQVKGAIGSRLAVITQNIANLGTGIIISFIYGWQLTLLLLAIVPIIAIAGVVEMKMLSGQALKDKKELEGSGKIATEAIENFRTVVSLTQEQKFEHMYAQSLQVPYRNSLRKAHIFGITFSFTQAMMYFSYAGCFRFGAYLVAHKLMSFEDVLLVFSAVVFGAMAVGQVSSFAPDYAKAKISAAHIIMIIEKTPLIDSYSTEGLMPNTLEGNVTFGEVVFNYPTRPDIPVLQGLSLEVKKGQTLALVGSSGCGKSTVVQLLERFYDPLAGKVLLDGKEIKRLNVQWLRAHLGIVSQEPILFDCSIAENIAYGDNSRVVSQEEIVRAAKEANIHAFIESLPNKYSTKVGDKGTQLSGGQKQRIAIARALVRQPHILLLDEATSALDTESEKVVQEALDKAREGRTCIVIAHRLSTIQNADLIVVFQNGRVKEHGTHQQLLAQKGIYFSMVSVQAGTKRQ

IC50 [1]: 9.13 µM | IC50 [2]: 4.93 µM | IC50 [4]: 4.75 µM
Compound: C[C@@H]1CN(C(=O)c2ccc(NC(=O)c3cc(O[C@H](C)c4c(Cl)ccc(F)c4Cl)c(N)nn3)cc2)C[C@H](C)N1 [ensartinib, Ensartinib]
IC50 ([3]; Canis lupus familiaris, MDCKII-parent, 48 h, MTT, read-out: IC50, sensitivity to ensartinib): 21.8 µM | combination effect (Chou-Talalay combination index) ([3]; MDCKII parental, 10 µM ensartinib with daunorubicin or mitoxantrone, whole FA range): antagonistic or additive | effect on the accumulation of any substrate in control cells [5]: no significant effect
